Results published in article PMC8635623, “A click chemistry approach to pleuromutilin derivatives, evaluation of anti-MRSA activity and elucidation of binding mode by surface plasmon resonance and molecular docking” (Journal of Enzyme Inhibition and Medicinal Chemistry, 2021).
Values after ≈ are worked out from the molar mass of the structure shown.

What was measured:
MRSA ATCC 43300 = assay: MIC/MBC by broth micro dilution; assay type: cell-based, methicillin-resistant S. aureus; conditions: Staphylococcus aureus; for MIC: 37 °C, 24 h, read-out: MIC; for MBC: lowest concentration reducing viable counts by 99.9%
Experimental: (§1) All the synthesised 1,2,3-triazole linked pleuromutilin analogues were screened for in vitro antibacterial activities against methicillin-resistant S. aureus (ATCC 43300), S. aureus (ATCC 29213), and two clinical strains of S. aureus (AD3 and 144, isolated from Guangdong Province, China). The MICs and MBCs of the synthesised pleuromutilin derivatives along with pleuromutilin and tiamulin used as the reference antibacterial drugs, were determined by the broth micro dilution methods according to the Clinical and Laboratory Standards Institute (CLSI)[18].
(§2) The MIC of these novel pleuromutilin derivatives against methicillin-resistant S. aureus (ATCC 43300), S. aureus (ATCC 29213), S. aureus (AD3) and S. aureus (144) were determined by using pleuromutilin and tiamulin as positive control. MIC values were determined by the broth micro dilution methods in accordance with the Clinical and Laboratory Standards Institute (2012). Stock solutions of these compounds were dissolved in methanol to make a stock solution with a concentration of 1280 µg/mL. The working solutions (640 µg/mL) were obtained by diluting stock solutions in sterile Mueller-Hinton (MH) broth. The bacterial solution and solutions of these compounds with a final concentration of 0.016–32 µg/mL were distributed into 96-well plates, with a total volume of 200 µL. Three parallel experiments for each compound concentration. The plates were incubated at 37 °C for 24 h.
(§3) MBC values were determined according to CLSI (2003) and previously report with slightly modification[18]^,[28]^,[31]. After obtaining the MIC results, the 96-well plates were incubated at 37 °C for 24 h. 100 µL of the bacterial solution from the wells with no visible growth was inoculated on MH agar plates. The MH agar plates were incubated at 37 °C for colony count. The MBC was determined as the lowest concentration of compound, which reduces the viable counts for 99.9%.

50S ribosome = assay: SPR binding studies; parameters: species or system S. aureus; conditions: 4 °C; for Kd: PBST pH 7.4, KD = Kd/Ka, read-out: KD (equilibrium dissociation constant); for Ka (association rate constant) / Kd (dissociation rate constant): PBST pH 7.4, compound immobilised, 50S ribosome 200-3200 nM
Experimental: In order to gain some insight into the binding mode of the potent inhibitors, SPR experiments were performed. […] The response unit (RU) of surface resonance was compared to determine the different binding affinities between each compound and the 50S ribosome. The association rate constants (Ka) and dissociation rate constant (Kd) represent the rate of association and dissociation in the binding reaction, respectively. The equilibrium dissociation constant (KD) indicated the degree of dissociation of compounds and the 50S ribosome in the equilibrium state. Their binding curves during the experiment were shown in Figure 3, as well as the concentration gradient curves were shown in Figure SI 27–34.
SPR biosensing experiments were performed at 4 °C using the bScreen LB 991 Label-free Microarray System (Berthold Technologies, Germany) and the photo-cross-linker sensor chip. The BIODOT™ AD-1520 Array Printer (BIODOT Inc., USA) was used for printing samples and control on the chip surface. A UV Spectroirradiator 1020 (Amersham Life Science, USA) was used for the photo-cross-linking reaction quickly after the array print.
As described in the reference[32–34] with minor modifications, the ribosome of S. aureus were extracted and purified to obtain 50S ribosome. MRSA (ATCC 43300) was incubated overnight at 37 °C. The bacteria solution was inoculated into a new culture solution, and cells were collected at an OD600 = 1.5. The bacterial culture was centrifuged 3 times at 3,500 rpm using a TX-400 rotor at 4 °C for 30 min, and then the supernatant was discarded. Cells were washed twice with 10 mM Tris-HCl (pH = 7.5), and suspend the precipitate with buffer A (20 mM HEPES-HCl pH = 7.5, 100 mM NH4Cl, 21 mM Mg(OAc)2, 1 mM EDTA, 1 mM DTT). Cells were lysed by repeated (>3×) snap-freezing and thawing, then ultrasonic disintegration was performed. To remove cell debris, the crushed product was centrifuged at 20,000 rpm for 90 min at 4 °C.The lysate layered on 15 ml of a sucrose cushion (10 mM HEPES-HCl pH = 7.5, 500 mM KCl, 25 mM Mg(OAc)2, 1.1 M sucrose, 0.5 mM EDTA, 1 mM DTT) and centrifuged in the ultracentrifuge(Optima^TM TL 100) at 45,000 rpm using a type70Ti rotor at 4 °C for 15 h to obtain ribosomal particles. Pellet was resuspended in 3 ml of buffer E (10 mM HEPES-HCl pH = 7.5, 100 mM KCl, 1 mM Mg(OAc)2, 0.5 mM EDTA, 1 mM DTT), then layered on 9 ml of 7–30% sucrose gradient and ultracentrifuged at 17,100 rpm using a typeSW40Ti rotor at 4 °C for 15 h. The gradient was analysed on the AKTA explorer system. The fractions corresponding to 50S ribosome were collected and PEG 20000 was added to a final concentration of 4.5% w/v. Ribosomes were pelleted by centrifugation at 20,000 rpm for 12 min, the pellet was gently dissolved in 200 µL of storage buffer (10 mM HEPES-HCl pH = 7.5, 15 mM KCl, 60 mM NH4Cl, 10 mM Mg(OAc)2, 1 mM DTT) and then flash-frozen for storage at −80 °C.
Dilute these compounds to a concentration of 10 mM with DMSO as the stationary phase printing working solution. After that, the printing working solution was printed on the sensor chip by the array printer, and each sample was printed four times repeatedly. Four groups of positive control dots (12 rapamycin dots, 3 in each corner) were printed on the four corners of the sensor chip respectively. The sample dots were dried in vacuum, and the sensor chip was quickly transferred to the UV spectroirradiator for a photo-cross-linking reaction. Subsequently, the sensor chip was washed with DMF, methanol, and water for 15 min in turn, followed by blowing dry under nitrogen, and then assembled with Flowcell Cover.
The binding studies were performed with PBST running buffer (pH = 7.4, 0.1% Tween 20) at a constant flow rate of 0.5 µL/s in instrument. 50S Ribosome was diluted separately with PBST running buffer to 200 nM, 400 nM, 800 nM, 1600 nM and 3200 nM and injected consecutively for 600 s at associating stage, followed by running buffer for 360 s at each dissociating stage. […]

S. aureus 144 = assay: MIC/MBC by broth micro dilution; assay type: cell-based; conditions: Staphylococcus aureus, S. aureus 144 (clinical strain); for MIC: 37 °C, 24 h; for MBC: lowest concentration reducing viable counts by 99.9%
Experimental: as §1, §2, §3

S. aureus AD3 = assay: MIC/MBC by broth micro dilution; assay type: cell-based; conditions: Staphylococcus aureus, S. aureus AD3 (clinical strain); for MIC: 37 °C, 24 h; for MBC: lowest concentration reducing viable counts by 99.9%
Experimental: as §1, §2, §3

S. aureus ATCC 29213 = assay: MIC/MBC by broth micro dilution; assay type: cell-based; conditions: Staphylococcus aureus; for MIC: ATCC29213, 37 °C, 24 h; for MBC: ATCC29213, lowest concentration reducing viable counts by 99.9%
Experimental: as §1, §2, §3

SMILES | MIC (MRSA ATCC 43300) | MBC (MRSA ATCC 43300) | Kd (50S ribosome) | Ka (association rate constant) (50S ribosome) | Kd (dissociation rate constant) (50S ribosome) | MIC (S. aureus 144) | MBC (S. aureus 144) | MIC (S. aureus AD3) | MBC (S. aureus AD3) | MIC (S. aureus ATCC 29213) | MBC (S. aureus ATCC 29213)
C=C[C@]1(C)C[C@@H](OC(=O)CSCCN(CC)CC)[C@]2(C)[C@H](C)CC[C@]3(CCC(=O)[C@H]32)[C@@H](C)[C@@H]1O [Tiamulin, tiamulin, reference compound] | 0.5 µg/mL (≈ 1.01 µM) | 1 µg/mL (≈ 2.03 µM) | 0.0363 µM | 122 M⁻¹ s⁻¹ | 4.44e-06 s⁻¹ | 1 µg/mL (≈ 2.03 µM) | 2 µg/mL (≈ 4.05 µM) | 1 µg/mL (≈ 2.03 µM) | 2 µg/mL (≈ 4.05 µM) | 0.5 µg/mL (≈ 1.01 µM) | 1 µg/mL (≈ 2.03 µM)
C=C[C@]1(C)C[C@@H](OC(=O)Cn2cc(CN3CCN(c4cccc([N+](=O)[O-])c4)CC3)nn2)[C@]2(C)[C@H](C)CC[C@]3(CCC(=O)[C@H]32)[C@@H](C)[C@@H]1O [Compound 63, 22-(2-(4-(4-(3-Nitrophenyl)-piperazin-1-yl)-methyl)-1H-1,2,3-triazol-1-yl)-22-deoxy pleuromutilin] | 2 µg/mL (≈ 3.08 µM) | 2 µg/mL (≈ 3.08 µM) | 3.48 µM | 992 M⁻¹ s⁻¹ | 0.00345 s⁻¹ | 4 µg/mL (≈ 6.17 µM) | 16 µg/mL (≈ 24.7 µM) | 2 µg/mL (≈ 3.08 µM) | 4 µg/mL (≈ 6.17 µM) | 4 µg/mL (≈ 6.17 µM) | 8 µg/mL (≈ 12.3 µM)
C=C[C@]1(C)C[C@@H](OC(=O)Cn2cc(CN3CCN(c4ccc(F)cc4)CC3)nn2)[C@]2(C)[C@H](C)CC[C@]3(CCC(=O)[C@H]32)[C@@H](C)[C@@H]1O [Compound 55, 22-(2-(4-(4-(4-Fluorophenyl)-piperazin-1-yl)-methyl)-1H-1,2,3-triazol-1-yl)-22-deoxy pleuromutilin] | 4 µg/mL (≈ 6.43 µM) | 4 µg/mL (≈ 6.43 µM) | – | – | – | 8 µg/mL (≈ 12.9 µM) | 32 µg/mL (≈ 51.5 µM) | 8 µg/mL (≈ 12.9 µM) | 16 µg/mL (≈ 25.7 µM) | 8 µg/mL (≈ 12.9 µM) | 8 µg/mL (≈ 12.9 µM)
C=C[C@]1(C)C[C@@H](OC(=O)Cn2cc(CN3CCN(c4ccc(Cl)cc4)CC3)nn2)[C@]2(C)[C@H](C)CC[C@]3(CCC(=O)[C@H]32)[C@@H](C)[C@@H]1O [Compound 58, 22-(2-(4-(4-(4-Chlorophenyl)-piperazin-1-yl)-methyl)-1H-1,2,3-triazol-1-yl)-22-deoxy pleuromutilin] | 4 µg/mL (≈ 6.27 µM) | 4 µg/mL (≈ 6.27 µM) | – | – | – | 16 µg/mL (≈ 25.1 µM) | 32 µg/mL (≈ 50.1 µM) | 8 µg/mL (≈ 12.5 µM) | 32 µg/mL (≈ 50.1 µM) | 8 µg/mL (≈ 12.5 µM) | 16 µg/mL (≈ 25.1 µM)
C=C[C@]1(C)C[C@@H](OC(=O)Cn2cc(CN3CCN(c4ccc(O)cc4)CC3)nn2)[C@]2(C)[C@H](C)CC[C@]3(CCC(=O)[C@H]32)[C@@H](C)[C@@H]1O [Compound 67, 22-(2-(4-(4-(4-Hydroxyphenyl)-piperazin-1-yl)-methyl)-1H-1,2,3-triazol-1-yl)-22-deoxy pleuromutilin] | 8 µg/mL (≈ 12.9 µM) | 16 µg/mL (≈ 25.8 µM) | – | – | – | 32 µg/mL (≈ 51.6 µM) | 32 µg/mL (≈ 51.6 µM) | 16 µg/mL (≈ 25.8 µM) | > 32 µg/mL | 16 µg/mL (≈ 25.8 µM) | 32 µg/mL (≈ 51.6 µM)
C=CC1(C)CC(OC(=O)Cn2cc(CN3CCC(CCO)CC3)nn2)C2(C)C(C)CCC3(CCC(=O)C32)C(C)C1O (stereo not drawn) [Compound 85, 22-(2-(4-(4-(2-Hydroxyethyl)piperidin-1-yl)methyl)-1H-1,2,3-triazol-1-yl)-22-deoxy pleuromutilin] | 8 µg/mL (≈ 14 µM) | 8 µg/mL (≈ 14 µM) | – | – | – | 16 µg/mL (≈ 28 µM) | 32 µg/mL (≈ 56.1 µM) | 16 µg/mL (≈ 28 µM) | 32 µg/mL (≈ 56.1 µM) | 16 µg/mL (≈ 28 µM) | 32 µg/mL (≈ 56.1 µM)
C=C[C@]1(C)C[C@@H](OC(=O)Cn2cc(CN3CCN(c4cccc(O)c4)CC3)nn2)[C@]2(C)[C@H](C)CC[C@]3(CCC(=O)[C@H]32)[C@@H](C)[C@@H]1O [Compound 66, 22-(2-(4-(4-(3-Hydroxyphenyl)-piperazin-1-yl)-methyl)-1H-1,2,3-triazol-1-yl)-22-deoxy pleuromutilin] | 4 µg/mL (≈ 6.45 µM) | 8 µg/mL (≈ 12.9 µM) | – | – | – | 8 µg/mL (≈ 12.9 µM) | 16 µg/mL (≈ 25.8 µM) | 8 µg/mL (≈ 12.9 µM) | 32 µg/mL (≈ 51.6 µM) | 8 µg/mL (≈ 12.9 µM) | 16 µg/mL (≈ 25.8 µM)
C=C[C@]1(C)C[C@@H](OC(=O)Cn2cc(CN3CCN(c4cccc(C)c4)CC3)nn2)[C@]2(C)[C@H](C)CC[C@]3(CCC(=O)[C@H]32)[C@@H](C)[C@@H]1O [Compound 51, 22-(2-(4-(4-(m-Tolyl)-piperazin-1-yl)-methyl)-1H-1,2,3-triazol-1-yl)-22-deoxy pleuromutilin] | 1 µg/mL (≈ 1.62 µM) | 2 µg/mL (≈ 3.24 µM) | 8.66 µM | 3800 M⁻¹ s⁻¹ | 0.0329 s⁻¹ | 4 µg/mL (≈ 6.47 µM) | 8 µg/mL (≈ 12.9 µM) | 2 µg/mL (≈ 3.24 µM) | 4 µg/mL (≈ 6.47 µM) | 2 µg/mL (≈ 3.24 µM) | 4 µg/mL (≈ 6.47 µM)
C=C[C@]1(C)C[C@@H](OC(=O)Cn2cc(CN3CCN(c4ccccc4O)CC3)nn2)[C@]2(C)[C@H](C)CC[C@]3(CCC(=O)[C@H]32)[C@@H](C)[C@@H]1O [Compound 65, 22-(2-(4-(4-(2-Hydroxyphenyl)-piperazin-1-yl)-methyl)-1H-1,2,3-triazol-1-yl)-22-deoxy pleuromutilin] | 4 µg/mL (≈ 6.45 µM) | 8 µg/mL (≈ 12.9 µM) | – | – | – | 8 µg/mL (≈ 12.9 µM) | 16 µg/mL (≈ 25.8 µM) | 4 µg/mL (≈ 6.45 µM) | 8 µg/mL (≈ 12.9 µM) | 8 µg/mL (≈ 12.9 µM) | 8 µg/mL (≈ 12.9 µM)
